We go through 4 compounds from BindingDB's records for doi:10.1016/j.ejmech.2020.112422 (China Medical University, 2020).

Series [1] is described as follows: Inhibition of human full-length ABCB1 expressed in FLp-In-293 cells assessed as potentiation of paclitaxel-induced cytotoxicity by measuring paclitaxel IC50 at 5 uM measured after 72 hrs by SRB assay (Rvb = 797 +/- 73 nM). (In SRB staining, fixed cells bind dye roughly in proportion to their protein.)
A short description of series [2]: Inhibition of ABCB1 in human KB-VIN cells assessed as potentiation of vincristine-induced cytotoxicity by measuring vincristine IC50 at 2.5 uM measured after 72 hrs by SRB assay (Rvb = 2867 +/- 142 nM).
Series [3] in a line: Inhibition of ABCB1 in human KB-VIN cells assessed as potentiation of doxorubicin-induced cytotoxicity by measuring doxorubicin IC50 at 5 uM measured after 72 hrs by SRB assay (Rvb = 4736 +/- 59 nM).
Series [4] in a line: Inhibition of ABCB1 in human HeLa S3 cells assessed as potentiation of paclitaxel-induced cytotoxicity by measuring paclitaxel IC50 at 2.5 uM measured after 72 hrs by SRB assay (Rvb = 26.50 +/- 4.1 nM).
The nature of series [5]: Inhibition of ABCB1 in human HeLa S3 cells assessed as potentiation of paclitaxel-induced cytotoxicity by measuring paclitaxel IC50 at 5 uM measured after 72 hrs by SRB assay (Rvb = 26.50 +/- 4.1 nM).
Series [6] can be described thus: Inhibition of ABCB1 in human KB-VIN cells assessed as potentiation of doxorubicin-induced cytotoxicity by measuring doxorubicin IC50 at 2.5 uM measured after 72 hrs by SRB assay (Rvb = 4736 +/- 59 nM).
Series [7] in a line: Inhibition of ABCB1 in FLp-In-293 cells assessed as potentiation of vincristine-induced cytotoxicity by measuring vincristine IC50 at 2.5 uM measured after 72 hrs by SRB assay (Rvb = 6 +/- 0.2 nM).
Series [8] is described as follows: Inhibition of ABCB1 in FLp-In-293 cells assessed as potentiation of vincristine-induced cytotoxicity by measuring vincristine IC50 at 5 uM measured after 72 hrs by SRB assay (Rvb = 6 +/- 0.2 nM).
The nature of series [9]: Inhibition of ABCB1 in human HeLa S3 cells assessed as potentiation of vincristine-induced cytotoxicity by measuring vincristine IC50 at 2.5 uM measured after 72 hrs by SRB assay (Rvb = 4.55 +/- 0.28 nM).
The nature of series [10]: Inhibition of ABCB1 in human KB-VIN cells assessed as potentiation of paclitaxel-induced cytotoxicity by measuring paclitaxel IC50 at 2.5 uM measured after 72 hrs by SRB assay (Rvb = 1762 +/- 63 nM).
Series [11] is described as follows: Inhibition of ABCB1 in FLp-In-293 cells assessed as potentiation of paclitaxel-induced cytotoxicity by measuring paclitaxel IC50 at 5 uM measured after 72 hrs by SRB assay (Rvb = 11.8 +/- 1.13 nM).
Series [12] in a line: Inhibition of human full-length ABCB1 expressed in FLp-In-293 cells assessed as potentiation of vincristine-induced cytotoxicity by measuring vincristine IC50 at 2.5 uM measured after 72 hrs by SRB assay (Rvb = 823 +/- 16 nM).
A short description of series [13]: Inhibition of human full-length ABCB1 expressed in FLp-In-293 cells assessed as potentiation of doxorubicin-induced cytotoxicity by measuring doxorubicin IC50 at 5 uM measured after 72 hrs by SRB assay (Rvb = 2264 +/- 196 nM).
Series [14] in a line: Inhibition of human full-length ABCB1 expressed in FLp-In-293 cells assessed as potentiation of paclitaxel-induced cytotoxicity by measuring paclitaxel IC50 at 2.5 uM measured after 72 hrs by SRB assay (Rvb = 797 +/- 73 nM).
Series [15] can be described thus: Inhibition of human full-length ABCB1 expressed in FLp-In-293 cells assessed as potentiation of doxorubicin-induced cytotoxicity by measuring doxorubicin IC50 at 2.5 uM measured after 72 hrs by SRB assay (Rvb = 2264 +/- 196 nM).
Series [16] in a line: Inhibition of ABCB1 in FLp-In-293 cells assessed as potentiation of paclitaxel-induced cytotoxicity by measuring paclitaxel IC50 at 2.5 uM measured after 72 hrs by SRB assay (Rvb = 11.8 +/- 1.13 nM).
Series [17] can be described thus: Inhibition of human full-length ABCB1 expressed in FLp-In-293 cells assessed as potentiation of vincristine-induced cytotoxicity by measuring vincristine IC50 at 5 uM measured after 72 hrs by SRB assay (Rvb = 823 +/- 16 nM).
A short description of series [18]: Inhibition of ABCB1 in human HeLa S3 cells assessed as potentiation of doxorubicin-induced cytotoxicity by measuring doxorubicin IC50 at 2.5 uM measured after 72 hrs by SRB assay (Rvb = 242 +/- 5 nM).
Series [19] can be described thus: Inhibition of ABCB1 in human KB-VIN cells assessed as potentiation of paclitaxel-induced cytotoxicity by measuring paclitaxel IC50 at 5 uM measured after 72 hrs by SRB assay (Rvb = 1762 +/- 63 nM).
Series [20] in a line: Inhibition of ABCB1 in FLp-In-293 cells assessed as potentiation of doxorubicin-induced cytotoxicity by measuring doxorubicin IC50 at 2.5 uM measured after 72 hrs by SRB assay (Rvb = 80 +/- 10 nM).
The nature of series [21]: Inhibition of ABCB1 in human HeLa S3 cells assessed as potentiation of doxorubicin-induced cytotoxicity by measuring doxorubicin IC50 at 5 uM measured after 72 hrs by SRB assay (Rvb = 242 +/- 5 nM).
Series [22] can be described thus: Inhibition of ABCB1 in FLp-In-293 cells assessed as potentiation of doxorubicin-induced cytotoxicity by measuring doxorubicin IC50 at 5 uM measured after 72 hrs by SRB assay (Rvb = 80 +/- 10 nM).
Series [23] in a line: Inhibition of ABCB1 in human HeLa S3 cells assessed as potentiation of vincristine-induced cytotoxicity by measuring vincristine IC50 at 5 uM measured after 72 hrs by SRB assay (Rvb = 4.55 +/- 0.28 nM).
A short description of series [24]: Inhibition of ABCB1 in human KB-VIN cells assessed as potentiation of vincristine-induced cytotoxicity by measuring vincristine IC50 at 5 uM measured after 72 hrs by SRB assay (Rvb = 2867 +/- 142 nM).

The structures appear in SMILES notation.

Turning to `COc1ccc(-c2cc(OC(C)=O)c3c(-c4cccs4)c(NC(=O)c4ccccc4C)oc3c2)cc1`, the half-inhibitory concentration (IC50) – broadly, the concentration at which inhibition is half-maximal – in series [1] was determined as 55 nM; in series [2], 36 nM; in series [3], 397 nM; in series [4] it was 11 nM; in [5], 8.9 nM; in series [6] it was 1550 nM. Further, the IC50 in series [7] turned out to be 0.88 nM; in series [8], 0.83 nM; in [9], 5.1 nM; in series [10], 345 nM; in series [11] it was 7.2 nM; in series [12], 84 nM. Also, the IC50 in series [13] was 478 nM; in series [14], 109 nM; in [15], 525 nM; in series [16] it was 9.1 nM; in series [17] it was 8.9 nM; in [18], 116 nM. The IC50 in [19] was found to be 46 nM; in [20] it was 89 nM; in series [21], 103 nM; in series [22], 82 nM; in [23], 3.7 nM; in series [24] it was 6.5 nM.

As to `COc1ccc(-c2cc(OC(C)=O)c3c(-c4cccs4)c(NC(=O)c4ccccc4Cl)oc3c2)cc1`, the IC50 in series [1] is 91 nM; in series [2] it was 37 nM; in series [3] it was 102 nM; in series [4] it was 9.6 nM; in series [5] it was 8.8 nM; in series [7] it was 0.88 nM. Further, the IC50 was 0.82 nM in [8]; 3.9 nM in series [9]; 80 nM in [10]; 6.3 nM in [11]; 114 nM in series [12]; 502 nM in series [13]. Further, the concentration for half-maximal inhibition (IC50) amounted to 602 nM in [14]; 564 nM in series [15]; 6.4 nM in series [16]; 9.2 nM in series [17]; 111 nM in series [18]; 21 nM in [19]. Also, the half-inhibitory concentration (IC50) in [20] came to 77 nM; in series [21] it was 86 nM; in series [22] it was 73 nM; in series [23] it was 2.2 nM; in [24], 7.6 nM.

With `COc1ccc(-c2cc(OC(C)=O)c3c(-c4cccs4)c(NC(=O)c4cccc(F)c4)oc3c2)cc1`, the half-maximal inhibitory concentration (IC50) in series [1] was 77 nM; in [2], 60 nM; in [3], 1400 nM; in series [4], 12 nM; in series [5], 11 nM; in series [6] it was 2210 nM. Besides, the IC50 is 6.3 nM in series [7]; 3.7 nM in series [8]; 5.4 nM in [9]; 116 nM in series [10]; 5.3 nM in series [11]; 96 nM in [12]. Further, the IC50 in series [13] was 504 nM; in series [14], 621 nM; in series [15] it was 559 nM; in [16], 6.6 nM; in series [17], 25 nM; in [18], 93 nM. The IC50 in series [19] came to 48 nM; in series [20], 81 nM; in [21], 87 nM; in [22] it was 82 nM; in series [23], 4.7 nM; in series [24], 12 nM.

With `COc1ccc(-c2cc(OC(C)=O)c3c(-c4cccs4)c(N(C(C)=O)C(C)=O)oc3c2)cc1`, the concentration for half-maximal inhibition (IC50) in series [1] came out at 645 nM; in series [2] it was 501 nM; in series [3], 1500 nM; in series [4], 14 nM; in [5], 14 nM; in series [6], 1740 nM. Also, the IC50 in [7] turned out to be 4.5 nM; in series [8], 4 nM; in [9] it was 5.7 nM; in series [10], 652 nM; in series [11], 10 nM; in [12], 663 nM. Besides, the half-maximal inhibitory concentration (IC50) in [13] is 677 nM; in [14], 647 nM; in series [15], 874 nM; in series [16] it was 11 nM; in series [17], 582 nM; in series [18] it was 105 nM. Besides, the IC50 in [19] amounted to 597 nM; in [20], 87 nM; in series [21], 102 nM; in series [22], 82 nM; in [23], 5.2 nM; in series [24], 314 nM.
